From patent US9949479B2 (priority 2015, dated 2018)
Converted amounts (≈) assume the structure as drawn. Like-named read-outs stand apart in the source and are kept apart here.

What was measured:
[1] = system: wheat scab; assay type: in vivo, Fusarium spp.
[2] = assay type: in vivo, wheat; conditions: dose as in E145
[3] = system: powdery mildew; assay type: in vivo; conditions: dose as in E145
[4] = assay type: in vivo, wheat; conditions: Serial 29: Carbendazim 50 g a.i. (control agent)
[5] = assay type: in vivo, wheat
[6] = system: leaf blight; assay type: in vivo; conditions: dose as in E145
[7] = system: DON toxin synthesis capability of thalli; parameters: species or system Fusarium spp.; conditions: in vivo
[8] = system: wheat scab; assay type: in vivo, Fusarium spp.; conditions: sprayed twice; g ai. agent/mu, Jinggangmycin+Metconazole by row: r16 1+15; r17 3+10; r18 5+5; r19 5+10; r20 5+15; r21 10+3; r22 10+10; r23 10+15; r24 50+3; r25 50+10; r26 50+15; r27 100+5; r28 100+10; Jinggangmycin alone r29 100; r30 50; r31 10; r32 5; r33 3; r34 1; Metconazole alone r35 15; r36 10; r37 5; r38 3; r39 Carbendazim 40
[9] = system: wheat scab; assay type: in vivo, Fusarium spp.; conditions: Serial 29: Carbendazim 50 g a.i. (control agent)
[10] = system: rust; assay type: in vivo; conditions: dose as in E145
[11] = parameters: species or system wheat; conditions: in vivo
[12] = system: Fusarium asiaticum; experiment: microbe, parasite or virus in culture; assay type: cell-based
[13] = system: Fusarium graminearum; experiment: microbe, parasite or virus in culture; assay type: cell-based; conditions: sensitive strains, Fusarium graminearum (both types of fusaria)

Compound | Disease Index Prevention Effect % Actual Prevention Effect ([1]; sprayed twice, g ai. agent/mu, Jinggangmycin+Metconazole by row: r12 0.5+25, r13 1+20, r14 5+5, r15 5+10, r16 5+15, r17 10+3, r18 10+5, r19 10+10, r20 10+15, r21 50+3, r22 50+5, r23 50+10, r24 50+15, r25 100+3, r26 100+5, r27 100+10, r28 100+15, r29 150+3, Jinggangmycin alone r30 0.5, r31 1, r32 5, r33 10, r34 50, r35 100, r36 150, Metconazole alone r37 3, r38 5, r39 10, r40 15, r41 20, r42 25, r4) | prevention effect on head blight ([1]; used for treatment alone) | Grain Toxin Content [2] | DON Reduction Percentage (%) ([2]; vs control) | Disease Index Prevention Effect % Powdery Mildew [3] | Grain Toxin Content (mg of DON/Kg of grain) [4] | Rate of Decrease in Toxin Content in Grains (%) [4] | Grain Toxin Content ([5]; dose by row as in E139) | decrease of toxin contamination level in comparison with the blank control ([5]; used for treatment alone) | toxin contamination level of grains ([5]; used for treatment alone) | DON Contamination Reduction Rate % ([5]; vs blank control, dose by row as in E139) | Disease Index Prevention Effect % Leaf Blight [6] | DON Synthesis Capability [7] | Disease Index Prevention Effect % Head Blight [8] | Disease Index Prevention Effect % Head Blight [9] | Disease Index Prevention Effect % Rust [10] | Thousand Kernel Weight [11] | ED50 [12] | ED50 [13] | ED50 ([12]; sensitive strains, Fusarium asiaticum (both types of fusaria))
COC(=O)Nc1nc2ccccc2[nH]1 [Carbendazim, carbendazim] | 67.5% | 67.5% | 5.67 μg of toxin/g of kernels | 55.0% | 52.6% | 4.35 mg of DON/Kg of grain | 32.7% | 4.4 μg of toxin/g of kernels | 58.5% | 4.4 mg/kg of grains | 58.5% | 48.5% | 28.94 | 38.6% | 49.04% | 61.2% | 41.6 g | 0.45 mg/L (≈ 2.35 µM) | 0.45 mg/L (≈ 2.35 µM) | 
CCOC(=O)C(C#N)=C(N)c1ccccc1 [phenamacril] |  |  |  |  |  |  |  |  |  |  |  |  |  |  |  |  |  |  | 0.165 mg/L (≈ 0.763 µM) | 0.165 mg/L (≈ 0.763 µM)
